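Exposure lasted 48 hours, with cells grown in 96-well plates and compounds tested at five concentrations. The concentration for 50% growth inhibition is given as GI50. TGI marks complete inhibition of growth.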
What was measured:
Experiment in all cases: DTP human tumour cell line panel, 48 h
NCI-H460 lung = test system: NCI-H460 lung
CCRF-CEM leukemia = test system: CCRF-CEM leukemia
MALME-3M melanoma = test system: MALME-3M melanoma
HCT-15 colon = test system: HCT-15 colon
LOX IMVI melanoma = test system: LOX IMVI melanoma
SK-MEL-28 melanoma = test system: SK-MEL-28 melanoma
COLO 205 colon = test system: COLO 205 colon
HT29 colon = test system: HT29 colon
SK-OV-3 ovarian = test system: SK-OV-3 ovarian
RPMI-8226 leukemia = test system: RPMI-8226 leukemia

Compound | TGI (NCI-H460 lung) [µM] | TGI (CCRF-CEM leukemia) [µM] | TGI (MALME-3M melanoma) [µM] | TGI (HCT-15 colon) [µM] | TGI (LOX IMVI melanoma) [µM] | TGI (SK-MEL-28 melanoma) [µM] | TGI (COLO 205 colon) [µM] | TGI (HT29 colon) [µM] | TGI (SK-OV-3 ovarian) [µM] | TGI (RPMI-8226 leukemia) [µM] | GI50 (NCI-H460 lung) [µM] | GI50 (CCRF-CEM leukemia) [µM] | GI50 (MALME-3M melanoma) [µM] | GI50 (HCT-15 colon) [µM] | GI50 (LOX IMVI melanoma) [µM] | GI50 (SK-MEL-28 melanoma) [µM] | GI50 (COLO 205 colon) [µM] | GI50 (HT29 colon) [µM] | GI50 (SK-OV-3 ovarian) [µM]
CN(C)C(=S)SCc1ccccc1 | > 100 | > 100 | > 100 | > 100 | > 100 | > 100 | > 100 | > 100 | > 100 |  |  |  |  |  |  |  |  |  | 
C/C(=C\c1ccc2c(c1)OCO2)[N+](=O)[O-] | > 100 | > 100 | 5.68 | 5.21 |  | 6.02 | 4.2 | 7.21 |  | > 100 |  |  |  |  |  |  |  |  | 
C(=N/Nc1ccccn1)/c1cccnc1 | > 100 | > 100 | > 100 | > 100 | > 100 | > 100 | > 100 | > 100 | > 100 | > 100 |  |  |  |  |  |  |  |  | 
CCOC(=O)c1cc(Cl)ccc1OC(N)=O | > 100 | > 100 |  | > 100 | > 100 | > 100 | > 100 | > 100 | > 100 | > 100 |  |  |  |  |  |  |  |  | 
Nc1nc(Cl)nc2c1ncn2C1CCC(CO)O1 (stereo not drawn) | > 100 | > 100 | > 100 | > 100 | > 100 | > 100 | > 100 | > 100 | > 100 | > 100 |  |  |  |  |  |  |  |  | 
Clc1ccc(CSCc2ccc(Cl)cc2Cl)c(Cl)c1 | > 100 | 51.7 | 72.5 | > 100 | > 100 | > 100 | > 100 | > 100 | > 100 | 88.6 |  |  |  |  |  |  |  |  | 
N#CC(C#N)=Cc1ccc(-c2ccc(-c3nc4ccccc4s3)cc2)s1 | > 100 | 62.9 | 54.5 | 40 | 23.5 | > 100 | > 100 | > 100 | 50.5 |  | 26 | 21 | 16.6 | 15.5 | 8.5 | 37.5 | 23.7 | 29.7 | 19.7
CC(C)(C)C1=NN=C2c3ccccc3C(=O)C21 (stereo not drawn) | > 100 | > 100 | > 100 | > 100 | > 100 | > 100 | > 100 | > 100 |  | > 100 |  |  |  |  |  |  |  |  | 

From PubChem BioAssay (NCI)
